Test: molar heat capacity at constant volume
Details: Liquid, Vacuum adiabatic calorimetry

CCC [propane]
Details | molar heat capacity at constant volume [J/K/mol]
101.14 K, 5078 kPa | 59.59
102.31 K, 9415 kPa | 59.63
104.09 K, 13618 kPa | 59.63
105.25 K, 15961 kPa | 59.93
107.01 K, 19580 kPa | 59.8
108.15 K, 22430 kPa | 60.17
109.89 K, 26296 kPa | 60.2
111.02 K, 28556 kPa | 60.44
124.99 K, 4945 kPa | 59.16
126.59 K, 8062 kPa | 59.47
127.81 K, 10414 kPa | 59.44
129.39 K, 13480 kPa | 59.66
130.6 K, 15739 kPa | 59.6
132.17 K, 18723 kPa | 60.02
133.36 K, 20943 kPa | 60
134.92 K, 23869 kPa | 60.12
136.1 K, 26024 kPa | 60.14
137.64 K, 28865 kPa | 60.52
138.81 K, 30978 kPa | 60.43
149.78 K, 4666 kPa | 59.78
150.88 K, 6488 kPa | 59.62
152.48 K, 9113 kPa | 59.99
153.59 K, 10968 kPa | 60.1
155.17 K, 13482 kPa | 60.14
156.27 K, 15303 kPa | 60.05
157.84 K, 17768 kPa | 60.44
158.93 K, 19535 kPa | 60.5
160.49 K, 21973 kPa | 60.63
161.58 K, 23733 kPa | 60.93
163.12 K, 26095 kPa | 60.76
164.21 K, 27828 kPa | 61.2
165.73 K, 30131 kPa | 61.05
166.81 K, 31798 kPa | 61.54
174.72 K, 4244 kPa | 60.48
175.51 K, 5348 kPa | 60.54
177.36 K, 7916 kPa | 60.58
178.15 K, 9061 kPa | 60.86
179.97 K, 11523 kPa | 61.04
180.77 K, 12700 kPa | 61.22
182.57 K, 15077 kPa | 61.29
183.38 K, 16221 kPa | 61.34
185.16 K, 18570 kPa | 61.57
185.97 K, 19691 kPa | 61.79
187.72 K, 22005 kPa | 62.06
188.54 K, 23141 kPa | 62.12
190.27 K, 25385 kPa | 62.49
191.1 K, 26538 kPa | 62.39
192.81 K, 28708 kPa | 62.66
193.64 K, 29843 kPa | 62.88
195.33 K, 31980 kPa | 62.87
196.16 K, 33063 kPa | 63.39
199.29 K, 3434 kPa | 62.08
200.29 K, 4569 kPa | 62.02
201.88 K, 6487 kPa | 62.05
202.88 K, 7627 kPa | 62.29
204.46 K, 9498 kPa | 62.44
205.45 K, 10675 kPa | 62.72
207.03 K, 12468 kPa | 63.03
208.02 K, 13633 kPa | 63.07
209.59 K, 15407 kPa | 63.29
210.57 K, 16525 kPa | 63.38
212.13 K, 18295 kPa | 63.46
213.11 K, 19392 kPa | 63.48
214.66 K, 21152 kPa | 63.9
215.63 K, 22244 kPa | 63.92
217.18 K, 23972 kPa | 64.21
218.15 K, 25069 kPa | 64.71
219.69 K, 26749 kPa | 64.74
220.66 K, 27850 kPa | 64.89
222.18 K, 29491 kPa | 65.36
223.14 K, 30548 kPa | 65.25
224.67 K, 32203 kPa | 65.68
224.72 K, 3002 kPa | 64.29
225.63 K, 33221 kPa | 66
225.69 K, 3945 kPa | 64.4
227.28 K, 5514 kPa | 64.59
228.26 K, 6458 kPa | 64.54
229.84 K, 8010 kPa | 64.8
230.82 K, 8990 kPa | 65.2
232.38 K, 10480 kPa | 64.79
233.38 K, 11478 kPa | 65.49
234.92 K, 12923 kPa | 65.31
235.92 K, 13904 kPa | 65.71
237.46 K, 15350 kPa | 65.71
238.46 K, 16299 kPa | 66.07
239.99 K, 17746 kPa | 65.96
240.99 K, 18681 kPa | 66.68
242.51 K, 20123 kPa | 66.43
243.5 K, 21054 kPa | 66.99
245.03 K, 22471 kPa | 67.42
246.01 K, 23413 kPa | 67.65
247.54 K, 24804 kPa | 67.75
248.53 K, 25750 kPa | 67.69
249.66 K, 2670 kPa | 66.76
250.04 K, 27105 kPa | 67.7
250.68 K, 3498 kPa | 66.65
251.02 K, 28035 kPa | 68.22
252.25 K, 4769 kPa | 67.25
252.53 K, 29385 kPa | 68.06
253.26 K, 5557 kPa | 67.47
253.52 K, 30287 kPa | 68.63
254.85 K, 6861 kPa | 67.69
255.02 K, 31645 kPa | 68.71
255.85 K, 7667 kPa | 67.82
256 K, 32529 kPa | 69.58
257.44 K, 8938 kPa | 67.87
258.44 K, 9764 kPa | 67.88
260.02 K, 10999 kPa | 68.4
261.02 K, 11824 kPa | 68.53
262.61 K, 13051 kPa | 68.83
263.6 K, 13861 kPa | 69.03
265.2 K, 15091 kPa | 69.38
266.18 K, 15878 kPa | 69.32
267.79 K, 17120 kPa | 69.94
268.76 K, 17881 kPa | 69.68

— the NIST ThermoML archive (doi:10.1021/je900137r)
